Measurements as given in ChEMBL document CHEMBL3885861, “Open TG-GATES”.

Species on record: Rattus norvegicus
Test: Open TG-GATES - Regimen: Daily Repeat
Type: toxicity, organism-based, Sprague-Dawley
Parameters: regimen Daily Repeat, gender Male, age 6 weeks
Conditions: in vivo, po, route gavage; for APTT / Bas / Eos / Fbg / Hb / Ht / Lym / MCH / MCHC / MCV / Mono / Neu / PT / Plat / RBC / Ret / WBC: tissue Blood; for ALP / ALT / AST / BUN / CRE / DBIL / GLC / IP / K / Na / PL / RALB / TBIL / TC / TG / TP / gamma-GTP: tissue Plasma
[1] = 100 mg/kg, 72 h, dose level Middle, time 3 day
[2] = 100 mg/kg, […], dose level Middle, time 7 day
[3] = 100 mg/kg, […], dose level Middle, time 14 day
[4] = 100 mg/kg, […], dose level Middle, time 28 day
[5] = 300 mg/kg, 72 h, dose level High, time 3 day
[6] = 300 mg/kg, […], dose level High, time 7 day
[7] = 300 mg/kg, […], dose level High, time 14 day
[8] = 300 mg/kg, […], dose level High, time 28 day

NS(=O)(=O)c1cc(C(=O)O)c(NCc2ccco2)cc1Cl [FUROSEMIDE]
TERMINAL_BW [1]: 230.7 g
APTT [1]: 16.9 s
Bas [1]: 0%
Eos [1]: 0.8%
Fbg [1]: 296.8 mg/dL
Hb [1]: 13.1 g/dL
Ht [1]: 38.3%
Lym [1]: 81.2%
MCH [1]: 21.4 pg
MCHC [1]: 34.1%
MCV [1]: 62.7 fL
Mono [1]: 2.2%
Neu [1]: 14.8%
PT [1]: 15 s
Plat [1]: 123 x10_4/uL
RBC [1]: 611.2 x10_4/ul
Ret [1]: 4.2%
WBC [1]: 107.2 x10_2/uL
ALP [1]: 1617.4 IU/L
ALT [1]: 47.4 IU/L
AST [1]: 68.8 IU/L
BUN [1]: 22.8 mg/dL
CRE [1]: 0.2 mg/dL
DBIL [1]: 0.014 mg/dL
GLC [1]: 176.6 mg/dL
IP [1]: 6.3 mg/dL
K [1]: 3.6 meq/L
Na [1]: 141.4 meq/L
PL [1]: 174 mg/dL
RALB [1]: 2.6 g/dL
TBIL [1]: 0.054 mg/dL
TC [1]: 90 mg/dL
TG [1]: 65 mg/dL
TP [1]: 5.6 g/dL
gamma-GTP [1]: 0.4 IU/L
TERMINAL_BW [2]: 247.4 g
TERMINAL_BW [3]: 311 g
TERMINAL_BW [4]: 380.8 g
APTT [2]: 17.5 s
Bas [2]: 0.4%
Eos [2]: 1.2%
Fbg [2]: 278 mg/dL
Hb [2]: 14.1 g/dL
Ht [2]: 40.4%
Lym [2]: 82%
MCH [2]: 20.8 pg
MCHC [2]: 34.9%
MCV [2]: 59.7 fL
Mono [2]: 1.8%
Neu [2]: 13.8%
PT [2]: 16 s
Plat [2]: 114.3 x10_4/uL
RBC [2]: 678.6 x10_4/ul
Ret [2]: 4.3%
WBC [2]: 110.3 x10_2/uL
APTT [3]: 16.7 s
Bas [3]: 0.6%
Eos [3]: 1%
Fbg [3]: 253.8 mg/dL
Hb [3]: 14.7 g/dL
Ht [3]: 42.1%
Lym [3]: 82.2%
MCH [3]: 20.5 pg
MCHC [3]: 34.9%
MCV [3]: 58.6 fL
Mono [3]: 2%
Neu [3]: 13.2%
PT [3]: 15.7 s
Plat [3]: 108.7 x10_4/uL
RBC [3]: 717.4 x10_4/ul
Ret [3]: 3.8%
WBC [3]: 124.3 x10_2/uL
APTT [4]: 17.5 s
Bas [4]: 1%
Eos [4]: 1%
Fbg [4]: 251.8 mg/dL
Hb [4]: 14.7 g/dL
Ht [4]: 42.7%
Lym [4]: 80%
MCH [4]: 19.2 pg
MCHC [4]: 34.5%
MCV [4]: 55.6 fL
Mono [4]: 1.6%
Neu [4]: 16.2%
PT [4]: 15.7 s
Plat [4]: 98.3 x10_4/uL
RBC [4]: 769.2 x10_4/ul
Ret [4]: 2.5%
WBC [4]: 125.7 x10_2/uL
ALP [2]: 1748.4 IU/L
ALT [2]: 43.8 IU/L
AST [2]: 73.4 IU/L
BUN [2]: 17.8 mg/dL
CRE [2]: 0.2 mg/dL
DBIL [2]: 0.012 mg/dL
GLC [2]: 179 mg/dL
IP [2]: 6.2 mg/dL
K [2]: 3.8 meq/L
Na [2]: 142.4 meq/L
PL [2]: 152 mg/dL
RALB [2]: 2.6 g/dL
TBIL [2]: 0.044 mg/dL
TC [2]: 71.4 mg/dL
TG [2]: 84.4 mg/dL
TP [2]: 5.7 g/dL
gamma-GTP [2]: 0.2 IU/L
ALP [3]: 1743.4 IU/L
ALT [3]: 44.2 IU/L
AST [3]: 78.6 IU/L
BUN [3]: 24.6 mg/dL
CRE [3]: 0.2 mg/dL
DBIL [3]: 0.016 mg/dL
GLC [3]: 177 mg/dL
IP [3]: 6.5 mg/dL
K [3]: 3.7 meq/L
Na [3]: 143.8 meq/L
PL [3]: 160.6 mg/dL
RALB [3]: 2.6 g/dL
TBIL [3]: 0.048 mg/dL
TC [3]: 78.4 mg/dL
TG [3]: 107.6 mg/dL
TP [3]: 5.7 g/dL
gamma-GTP [3]: 0.6 IU/L
ALP [4]: 1073.6 IU/L
ALT [4]: 42.8 IU/L
AST [4]: 70.4 IU/L
BUN [4]: 24 mg/dL
CRE [4]: 0.2 mg/dL
DBIL [4]: 0.02 mg/dL
GLC [4]: 178.2 mg/dL
IP [4]: 5.7 mg/dL
K [4]: 3.7 meq/L
Na [4]: 144.8 meq/L
PL [4]: 143.4 mg/dL
RALB [4]: 2.6 g/dL
TBIL [4]: 0.052 mg/dL
TC [4]: 66 mg/dL
TG [4]: 109.2 mg/dL
TP [4]: 6 g/dL
gamma-GTP [4]: 0.4 IU/L
TERMINAL_BW [5]: 189.1 g
APTT [5]: 20.9 s
Bas [5]: 0.4%
Eos [5]: 0.8%
Fbg [5]: 315.2 mg/dL
Hb [5]: 16.5 g/dL
Ht [5]: 47%
Lym [5]: 80%
MCH [5]: 20.8 pg
MCHC [5]: 35.1%
MCV [5]: 59.3 fL
Mono [5]: 2.6%
Neu [5]: 15.8%
PT [5]: 15.6 s
Plat [5]: 124.2 x10_4/uL
RBC [5]: 794 x10_4/ul
Ret [5]: 2%
WBC [5]: 116.4 x10_2/uL
ALP [5]: 1596.8 IU/L
ALT [5]: 46.2 IU/L
AST [5]: 67.4 IU/L
BUN [5]: 41.8 mg/dL
CRE [5]: 0.2 mg/dL
DBIL [5]: 0.02 mg/dL
GLC [5]: 164.6 mg/dL
IP [5]: 5.7 mg/dL
K [5]: 3 meq/L
Na [5]: 136.4 meq/L
PL [5]: 169.6 mg/dL
RALB [5]: 2.9 g/dL
TBIL [5]: 0.082 mg/dL
TC [5]: 90.2 mg/dL
TG [5]: 48.4 mg/dL
TP [5]: 6.2 g/dL
gamma-GTP [5]: 1.2 IU/L
TERMINAL_BW [6]: 216.8 g
TERMINAL_BW [7]: 243.1 g
TERMINAL_BW [8]: 317.2 g
APTT [6]: 16.2 s
Bas [6]: 0.4%
Eos [6]: 1%
Fbg [6]: 291 mg/dL
Hb [6]: 15 g/dL
Ht [6]: 42.7%
Lym [6]: 81.6%
MCH [6]: 20.8 pg
MCHC [6]: 35.2%
MCV [6]: 59.3 fL
Mono [6]: 2.2%
Neu [6]: 14.4%
PT [6]: 16.2 s
Plat [6]: 97.2 x10_4/uL
RBC [6]: 720.2 x10_4/ul
Ret [6]: 2.4%
WBC [6]: 121.9 x10_2/uL
APTT [7]: 17 s
Bas [7]: 0.5%
Eos [7]: 1%
Fbg [7]: 309.5 mg/dL
Hb [7]: 15.3 g/dL
Ht [7]: 43.5%
Lym [7]: 80%
MCH [7]: 19.9 pg
MCHC [7]: 35.2%
MCV [7]: 56.5 fL
Mono [7]: 2%
Neu [7]: 15.5%
PT [7]: 15.9 s
Plat [7]: 102.8 x10_4/uL
RBC [7]: 769.5 x10_4/ul
Ret [7]: 3.6%
WBC [7]: 113 x10_2/uL
APTT [8]: 16 s
Bas [8]: 1%
Eos [8]: 1.2%
Fbg [8]: 265.8 mg/dL
Hb [8]: 15.6 g/dL
Ht [8]: 45.6%
Lym [8]: 80.8%
MCH [8]: 19.3 pg
MCHC [8]: 34.3%
MCV [8]: 56.5 fL
Mono [8]: 2%
Neu [8]: 15.2%
PT [8]: 16 s
Plat [8]: 91 x10_4/uL
RBC [8]: 806.5 x10_4/ul
Ret [8]: 2%
WBC [8]: 106.7 x10_2/uL
ALP [6]: 1629.6 IU/L
ALT [6]: 50.2 IU/L
AST [6]: 71 IU/L
BUN [6]: 27 mg/dL
CRE [6]: 0.2 mg/dL
DBIL [6]: 0.018 mg/dL
GLC [6]: 169.8 mg/dL
IP [6]: 4.9 mg/dL
K [6]: 3.5 meq/L
Na [6]: 141.8 meq/L
PL [6]: 164.8 mg/dL
RALB [6]: 2.7 g/dL
TBIL [6]: 0.062 mg/dL
TC [6]: 80.6 mg/dL
TG [6]: 67 mg/dL
TP [6]: 5.9 g/dL
gamma-GTP [6]: 0.4 IU/L
ALP [7]: 1713 IU/L
ALT [7]: 48.2 IU/L
AST [7]: 79 IU/L
BUN [7]: 28.8 mg/dL
CRE [7]: 0.2 mg/dL
DBIL [7]: 0.0175 mg/dL
GLC [7]: 174 mg/dL
IP [7]: 5.5 mg/dL
K [7]: 3.4 meq/L
Na [7]: 142.8 meq/L
PL [7]: 171.8 mg/dL
RALB [7]: 2.7 g/dL
TBIL [7]: 0.0575 mg/dL
TC [7]: 83 mg/dL
TG [7]: 84.2 mg/dL
TP [7]: 5.9 g/dL
gamma-GTP [7]: 0.5 IU/L
ALP [8]: 1444.8 IU/L
ALT [8]: 44.2 IU/L
AST [8]: 72.2 IU/L
BUN [8]: 30.8 mg/dL
CRE [8]: 0.2 mg/dL
DBIL [8]: 0.0175 mg/dL
GLC [8]: 174.8 mg/dL
IP [8]: 5.1 mg/dL
K [8]: 3.5 meq/L
Na [8]: 144.5 meq/L
PL [8]: 150.2 mg/dL
RALB [8]: 2.7 g/dL
TBIL [8]: 0.055 mg/dL
TC [8]: 69.8 mg/dL
TG [8]: 92.2 mg/dL
TP [8]: 6 g/dL
gamma-GTP [8]: 0.5 IU/L
